Measurements as given in patent US10118935B2, “Melampomagnolide B dimers” (priority 2014, dated 2018).

Experiments:
[1] = system: LOX IMVI; test: NCI 60 cell line five dose, Melanoma
[2] = system: NCI-H23; test: NCI 60 cell line five dose, Non-Small Cell Lung Cancer
[3] = system: SK-MEL-28; test: NCI 60 cell line five dose, Melanoma; details: SK-MEL-28
[4] = system: A498; test: NCI 60 cell line five dose, Renal Cancer
[5] = system: K-562; test: NCI 60 cell line five dose, Leukemia
[6] = system: SF-268; test: NCI 60 cell line five dose, CNS Cancer
[7] = system: RPMI-8226; test: NCI 60 cell line five dose, Leukemia
[8] = system: HT29; test: NCI 60 cell line five dose, Colon Cancer
[9] = system: MDA-MB-231/ATCC; test: NCI 60 cell line five dose, Breast Cancer
[10] = system: TK-10; test: NCI 60 cell line five dose, Renal Cancer
[11] = system: T-47D; test: NCI 60 cell line five dose, Breast Cancer
[12] = system: NCI-H226; test: NCI 60 cell line five dose, Non-Small Cell Lung Cancer
[13] = system: NCI-H522; test: as above
[14] = system: HCC-2998; test: NCI 60 cell line five dose, Colon Cancer
[15] = system: HS 578T; test: NCI 60 cell line five dose, Breast Cancer; details: HS 578T
[16] = system: OVCAR-8; test: NCI 60 cell line five dose, Ovarian Cancer
[17] = system: SF-539; test: NCI 60 cell line five dose, CNS Cancer
[18] = system: SK-MEL-5; test: NCI 60 cell line five dose, Melanoma; details: SK-MEL-5
[19] = system: SK-MEL-2; test: NCI 60 cell line five dose, Melanoma
[20] = system: COLO 205; test: NCI 60 cell line five dose, Colon Cancer
[21] = system: DU-145; test: NCI 60 cell line five dose, Prostate Cancer
[22] = system: NCI-H322M; test: NCI 60 cell line five dose, Non-Small Cell Lung Cancer
[23] = system: MOLT-4; test: NCI 60 cell line five dose, Leukemia
[24] = system: OVCAR-4; test: NCI 60 cell line five dose, Ovarian Cancer

## C=C1C(=O)O[C@H]2[C@H]1CC/C(COC(=O)NCCCCCNC(=O)OC/C1=C/CC[C@@]3(C)O[C@H]3[C@H]3OC(=O)C(=C)[C@@H]3CC1)=C\CC[C@@]1(C)O[C@@H]21 [JVM 2-76, bis(((1aR,7aS,10aS,10bS,E)-1a-Methyl-8-methylene-9-oxo-1a,2,3,6,7,7a,8,9,10a,10b-decahydrooxireno[2′,3′:9,10]cyclodeca[1,2-b]furan-5-yl)methyl)pentane-1,5-diyldicarbamate]
[1]
  GI50: 0.46 µM
  TGI: 1.85 µM
[1]; read-out: LC50
  CC50: 5.82 µM
[2]
  GI50: 2.66 µM
  TGI: 7.71 µM
[2]; read-out: LC50
  CC50: 45.5 µM
[3]
  GI50: 1.58 µM
  TGI: 4.13 µM
[3]; read-out: LC50
  CC50: 12.6 µM
[4]
  GI50: 6.24 µM
  TGI: 19.4 µM
[4]; read-out: LC50
  CC50: 47.5 µM
[5]
  GI50: 0.56 µM
  TGI: 16.1 µM
[5]; read-out: LC50
  CC50: > 100 µM
[6]
  GI50: 3.08 µM
  TGI: 12.0 µM
[6]; read-out: LC50
  CC50: 42.3 µM
[7]
  GI50: 0.78 µM
  TGI: 4.16 µM
[7]; read-out: LC50
  CC50: > 100 µM
[8]
  GI50: 0.51 µM
  TGI: 1.78 µM
[8]; read-out: LC50
  CC50: 4.85 µM
[9]
  GI50: 1.47 µM
  TGI: 3.07 µM
[9]; read-out: LC50
  CC50: 6.4 µM
[10]
  GI50: 1.82 µM
  TGI: 4.40 µM
[10]; read-out: LC50
  CC50: 11.8 µM
[11]
  GI50: 1.6 µM
  TGI: 5.73 µM
[11]; read-out: LC50
  CC50: > 100 µM
[12]
  GI50: 2.56 µM
  TGI: 8.18 µM
[12]; read-out: LC50
  CC50: 30.9 µM
[13]
  GI50: 0.22 µM
  TGI: 0.44 µM
[13]; read-out: LC50
  CC50: 0.88 µM
[14]
  GI50: 6.71 µM
  TGI: 20.7 µM
[14]; read-out: LC50
  CC50: 53.9 µM
[15]
  GI50: 2.91 µM
  TGI: 13.0 µM
[15]; read-out: LC50
  CC50: > 100 µM
[16]
  GI50: 3.27 µM
  TGI: 13.7 µM
[16]; read-out: LC50
  CC50: 61 µM
[17]
  GI50: 1.92 µM
  TGI: 4.56 µM
[17]; read-out: LC50
  CC50: 12.7 µM
[18]
  GI50: 3.19 µM
  TGI: 12.2 µM
[18]; read-out: LC50
  CC50: 37 µM
[19]
  GI50: 2.01 µM
  TGI: 3.96 µM
[19]; read-out: LC50
  CC50: 7.81 µM
[20]
  GI50: 0.52 µM
  TGI: 2.33 µM
[20]; read-out: LC50
  CC50: 7.97 µM
[21]
  GI50: 3.06 µM
  TGI: 9.55 µM
[21]; read-out: LC50
  CC50: 32.6 µM
[22]
  GI50: 16.4 µM
  TGI: 41.6 µM
[23]
  GI50: 1.48 µM
  TGI: 9.29 µM
[23]; read-out: LC50
  CC50: > 100 µM
[24]
  GI50: 2.72 µM
  TGI: 15.2 µM
[24]; read-out: LC50
  CC50: 41.9 µM
